# Results from US20200390767A1, “Formulations of 4-(7-Hydroxy-2-isopropyl-4-oxo-4H-quinazolin-3-yl)-benzonitrile” (NOVARTIS AG, priority 2019, published 2020).
# Read-outs that look alike come from different tables or passages of the source.
# Experiments:
# healthy volunteers = assay: First in human study, safety (SAD and MAD adverse events); type: in vivo; conditions: 8 times daily for 7 days
# Protocol: This example describes a first-in-human study of compound I conducted in healthy volunteers. A total of 54 subjects were administered to study medication. Part 1 of the first in human study administered single ascending doses of 0.15%, 1.5%, 2.5% w/v (1 drop) of compound I in an eye drop.
# Part 2 tested multiple ascending doses (MAD) of compound I, administering (i) 1 drop of 0.15%, 1.5%, 2.5%, 4 times daily (every 6 hours) for 7 days or (ii) 1 drop of 2.5%, 8 times daily (every 3 hours) for 7 days (supra-therapeutic dose) as eye drops.
# Safety assessments: Safety assessments consisted of collecting all adverse events (AEs), serious adverse events (SAEs), including systemic and ocular adverse events, along with their severity and relationship to study drug. Systemic safety assessments included regular monitoring of hematology, blood chemistry and urinalysis performed at study center and regular assessments of physical examination, vital signs (systolic and diastolic blood pressure, pulse rate, and body temperature), ECG, pregnancy and assessments of fertility and hand immersion test at 49° C. during MAD part. Ocular safety assessments included early treatment diabetic retinopathy study (ETDRS) visual acuity, intraocular pressure, slit-lamp biomicroscopy, corneal staining and dilated fundus exam. […]
# [1] = Solubility of compound I in solvents; type: physicochemical
# Description: As noted above, compound I is sparingly soluble in various media.
# [2] = PRK clinical study, plasma pharmacokinetics of compound I (LC-MS/MS); type: in vivo, human
# Protocol: Pharmacokinetic (PK) samples were collected at the time points defined in the visit schedule supra, with PK blood collection windows shown in Table 27.
# All blood samples (3 mL) were taken from the arm by either direct venipuncture or an indwelling catheter inserted in a forearm vein. After each tube of blood was drawn, it was immediately inverted gently 8-10 times to ensure the mixing of tube contents with anticoagulant (3 mL K2 EDTA). Prolonged sample contact with the rubber stopper was avoided and the tubes were placed upright in a test tube rack surrounded by wet ice until centrifugation.
# Within 30 minutes, the sample was centrifuged at about 5° C. for 10 minutes at approximately 2000 G (or the sample was placed on ice and centrifuged at room temperature). Immediately after centrifugation, the whole supernatant (approx. 1.5 mL) was transferred in the first 1.8 mL NUNC 2D barcoded cryovial. After mixing the plasma thoroughly, half of the plasma was transferred from the first cryovial to the second cryovial and the caps were secured. Appropriate PK cryolabels were attached to each cryovial and the labels were secured with clear tape. The cryovials were frozen immediately over dry ice then, kept frozen at ≤−20° C. until shipment to the central lab. The vials were shipped in biweekly batches.
# Compound I was quantified in plasma using a validated LC-MS/MS method; the lower limit of quantification (LLOQ) was 0.05 ng/mL. Concentrations were expressed in ng per mL units. When feasible, bandage contact lenses (BCL) exposed to study drug were collected and analyzed for residual drug exposure after treatment (LLOQ: 5.00 ng/mL in 0.55 mL of extraction fluid, or 2.75 ng/BCL). Concentrations below the LLOQ were reported as “zero” and missing data were labeled as such.
# The following PK parameters were determined as relevant using the actual recorded sampling times and non-compartmental method with Phoenix™ WinNonlin® (Version 6.4): Cmax, Tmax, AUClast (calculated), Clast and Tlast from the plasma concentration-time data. Pre-dose concentrations were determined by inspection at nominal 0, 24 and 72 hours. The linear trapezoidal rule was used for AUClast calculation. No PK parameters were calculated from the bandage contact lenses compound I concentration data.
# [3] = tested on: postoperative ocular pain in patients undergoing photorefractive keratectomy (PRK) surgery; assay: PRK clinical study, oral rescue medication use; type: in vivo, human
# Protocol: Rescue medication consisted of oral analgesic (acetaminophen 300 mg+codeine 30 mg) as needed up to a total of 10 tabs/day or 1-2 tabs every 4 hours.
# After 36 hours post-operation, the same number of patients took ORM in compound I vs. Vehicle (Table 24).
# [4] = Day 1, plasma, topical ocular 2.5% compound I
# [5] = Day 4, plasma, topical ocular 2.5% compound I
# [6] = human, plasma, topical, 2.5 %, 4 days
smiles,measurement,setting,value
"CC(C)c1nc2cc(O)ccc2c(=O)n1-c1ccc(C#N)cc1 [Compound I, 4-(7-hydroxy-2-isopropyl-4-oxo-4H-quinazolin-3-yl)-benzonitrile]",dose limiting adverse events,healthy volunteers; 2.5%,No dose limiting adverse events were identified
same,Maximum Tolerated Dose (MTD),"healthy volunteers; eye drops, healthy volunteers",2.5%
same,solubility,"[1]; isopropyl myristate, oil or lipid, solvent: Isopropyl Myrisate",90 µg/mL
same,solubility,"[1]; oil or lipid, solvent: Medium-Chain Triglycerides (Miglyol 812)",100 µg/mL
same,solubility,"[1]; oil or lipid, solvent: Mineral Oil",30 µg/mL
same,solubility,"[1]; oil or lipid, solvent: Oleyl Alcohol",120 µg/mL
same,solubility,"[1]; organic solvent or mixture, solvent: Diisopropyl Adipate",160 µg/mL
same,solubility,"[1]; organic solvent or mixture, solvent: Ethanol",790 µg/mL
same,solubility,"[1]; organic solvent or mixture, solvent: Hexylene Glycol",280 µg/mL
same,solubility,"[1]; organic solvent or mixture, solvent: Isopropanol",330 µg/mL
same,solubility,"[1]; organic solvent or mixture, solvent: Isosorbide",340 µg/mL
same,solubility,"[1]; organic solvent or mixture, solvent: Polyethylene Glycol 200",1620 µg/mL
same,solubility,"[1]; organic solvent or mixture, solvent: Polyethylene Glycol 300",2040 µg/mL
same,solubility,"[1]; organic solvent or mixture, solvent: Polyethylene Glycol 400",1660 µg/mL
same,solubility,"[1]; organic solvent or mixture, solvent: Propylene Carbonate",400 µg/mL
same,solubility,"[1]; organic solvent or mixture, solvent: Propylene Glycol",1680 µg/mL
same,solubility,[1]; solvent: Water,10 µg/mL
same,Median Tlast,[2]; [4],2.00 h
same,Tlast (range),[2]; [4],1.95 to 2.05 h
same,Median Tlast,[2]; [5],2.00 h
same,Tlast (range),[2]; [5],1.77 to 2.10 h
same,Day 1 pre-dose plasma concentrations,[2]; LLOQ 0.05 ng/mL,below the limit of quantitation
same,Tmax,"[2]; human, plasma, topical or ocular, 2.5 %, after either single (first dose) or repeated 4 times daily topical ocular administration, read-out: median plasma Tmax",~30 min
same,Tmax,"[2]; human, plasma, topical or ocular, 2.5 %, after the first dose (Day 1), unilateral topical ocular 2.5%, read-out: median Tmax, plasma",27.5 min
same,AUC(0-t),"[2]; human, plasma, topical or ocular, 2.5 %, max, profile day 1, plasma, topical ocular 2.5% compound I, read-out: AUClast",1.58 ng·h/mL
same,Cmax,"[2]; human, plasma, topical or ocular, 2.5 %, max, profile day 1, plasma, topical ocular 2.5% compound I, read-out: Cmax",1.05 ng/mL
same,Tmax,"[2]; human, plasma, topical or ocular, 2.5 %, max, profile day 1, plasma, topical ocular 2.5% compound I, read-out: Tmax",120 min
same,AUC(0-t),"[2]; human, plasma, topical or ocular, 2.5 %, max, profile day 4, plasma, topical ocular 2.5% compound I, read-out: AUClast",14.5 ng·h/mL
same,Cmax,"[2]; human, plasma, topical or ocular, 2.5 %, max, profile day 4, plasma, topical ocular 2.5% compound I, read-out: Cmax",7.56 ng/mL
same,Tmax,"[2]; human, plasma, topical or ocular, 2.5 %, max, profile day 4, plasma, topical ocular 2.5% compound I, read-out: Tmax",125 min
same,Cmax,"[2]; human, plasma, topical or ocular, 2.5 %, mean, profile day 1 (first dose), plasma, topical ocular 2.5% compound I, PK analysis set, read-out: Cmax",0.454 ng/mL
same,AUC(0-t),"[2]; human, plasma, topical or ocular, 2.5 %, mean, profile day 1, plasma, topical ocular 2.5% compound I, read-out: AUClast",0.638 ng·h/mL
same,Cmax,"[2]; human, plasma, topical or ocular, 2.5 %, mean, profile day 4 (13th dose, QID), plasma, topical ocular 2.5% compound I, read-out: Cmax",2.4 ng/mL
same,AUC(0-t),"[2]; human, plasma, topical or ocular, 2.5 %, mean, profile day 4, plasma, topical ocular 2.5% compound I, read-out: AUClast",4.38 ng·h/mL
same,AUC(0-t),"[2]; human, plasma, topical or ocular, 2.5 %, median, profile day 1, plasma, topical ocular 2.5% compound I, read-out: AUClast",0.569 ng·h/mL
same,Cmax,"[2]; human, plasma, topical or ocular, 2.5 %, median, profile day 1, plasma, topical ocular 2.5% compound I, read-out: Cmax",0.375 ng/mL
same,Tmax,"[2]; human, plasma, topical or ocular, 2.5 %, median, profile day 1, plasma, topical ocular 2.5% compound I, read-out: Tmax",27.5 min
same,AUC(0-t),"[2]; human, plasma, topical or ocular, 2.5 %, median, profile day 4, plasma, topical ocular 2.5% compound I, read-out: AUClast",3.42 ng·h/mL
same,Cmax,"[2]; human, plasma, topical or ocular, 2.5 %, median, profile day 4, plasma, topical ocular 2.5% compound I, read-out: Cmax",2.07 ng/mL
same,Tmax,"[2]; human, plasma, topical or ocular, 2.5 %, median, profile day 4, plasma, topical ocular 2.5% compound I, read-out: Tmax",28 min
same,AUC(0-t),"[2]; human, plasma, topical or ocular, 2.5 %, min, profile day 1, plasma, topical ocular 2.5% compound I, read-out: AUClast",0.261 ng·h/mL
same,Cmax,"[2]; human, plasma, topical or ocular, 2.5 %, min, profile day 1, plasma, topical ocular 2.5% compound I, read-out: Cmax",0.195 ng/mL
same,Tmax,"[2]; human, plasma, topical or ocular, 2.5 %, min, profile day 1, plasma, topical ocular 2.5% compound I, read-out: Tmax",10 min
same,AUC(0-t),"[2]; human, plasma, topical or ocular, 2.5 %, min, profile day 4, plasma, topical ocular 2.5% compound I, read-out: AUClast",1.18 ng·h/mL
same,Cmax,"[2]; human, plasma, topical or ocular, 2.5 %, min, profile day 4, plasma, topical ocular 2.5% compound I, read-out: Cmax",0.639 ng/mL
same,Tmax,"[2]; human, plasma, topical or ocular, 2.5 %, min, profile day 4, plasma, topical ocular 2.5% compound I, read-out: Tmax",0 min
same,Cmax,"[2]; human, plasma, topical, 2.5 %, 13th dose on Day 4, read-out: Arithmetic mean plasma Cmax",2.4 ng/mL
same,AUC(0-t),"[2]; human, plasma, topical, 2.5 %, 13th dose on Day 4, read-out: mean plasma AUClast",4.38 ng·h/mL
same,mean AUClast Day 4 versus Day 1,[2]; [6],6.9 fold
same,mean Cmax Day 4 versus Day 1,[2]; [6],5.3 fold
same,Cmax,"[2]; human, plasma, topical, 2.5 %, across 4 days of repeated QID dosing, read-out: observed plasma Cmax, range",0.195 to 7.56 ng/mL
same,AUC(0-t),"[2]; human, plasma, topical, 2.5 %, across 4 days of repeated QID dosing, read-out: plasma AUClast, range",0.261 to 14.5 ng·h/mL
same,Tmax,"[2]; human, plasma, topical, 2.5 %, after the 13th dose (Day 4), read-out: median Tmax, plasma",28 min
same,Cmax,"[2]; human, plasma, topical, 2.5 %, first dose on Day 1, read-out: Arithmetic mean plasma Cmax",0.454 ng/mL
same,AUC(0-t),"[2]; human, plasma, topical, 2.5 %, first dose on Day 1, read-out: mean plasma AUClast",0.638 ng·h/mL
same,concentration at 24 hr,"[2]; human, plasma, topical, 2.5 %, prior to the 5th dose on Day 2 (24 hr post 1st dose), read-out: Trough mean plasma concentration",1.25 ng/mL
same,concentration at 72 hr,"[2]; human, plasma, topical, 2.5 %, prior to the 13th dose on Day 4 (72 hr post 1st dose), read-out: Trough mean plasma concentration",1.99 ng/mL
same,"% Change (Compound I-Vehicle)/Vehicle, mg/kg of body weight",[3]; 0-6 hours post-operatively,−25%
same,"% Change (Compound I-Vehicle)/Vehicle, number of pills",[3]; 0-6 hours post-operatively,−25%
same,"amount of oral rescue medication, Mean (SD)",[3]; 0-6 hours post-operatively,3.32 (4.684) mg/kg of body weight
same,"amount of oral rescue medication, Mean (SD)","[3]; 0-6 hours post-operatively, listed as compound I",0.75 (1.032) Number of pills
same,"% Change (Compound I-Vehicle)/Vehicle, mg/kg of body weight",[3]; 0-12 hours post-operatively,−17%
same,"% Change (Compound I-Vehicle)/Vehicle, number of pills",[3]; 0-12 hours post-operatively,−15%
same,"amount of oral rescue medication, Mean (SD)",[3]; 0-12 hours post-operatively,6.10 (8.062) mg/kg of body weight
same,"amount of oral rescue medication, Mean (SD)","[3]; 0-12 hours post-operatively, listed as compound I",1.40 (1.780) Number of pills
same,"% Change (Compound I-Vehicle)/Vehicle, mg/kg of body weight",[3]; 0-24 hours post-operatively,−18%
same,"% Change (Compound I-Vehicle)/Vehicle, number of pills",[3]; 0-24 hours post-operatively,−16%
same,"amount of oral rescue medication, Mean (SD)",[3]; 0-24 hours post-operatively,10.17 (12.335) mg/kg of body weight
same,"amount of oral rescue medication, Mean (SD)","[3]; 0-24 hours post-operatively, listed as compound I",2.35 (2.751) Number of pills
same,"% Change (Compound I-Vehicle)/Vehicle, mg/kg of body weight",[3]; 0-48 hours post-operatively,−14%
same,"% Change (Compound I-Vehicle)/Vehicle, number of pills",[3]; 0-48 hours post-operatively,−13%
same,"amount of oral rescue medication, Mean (SD)",[3]; 0-48 hours post-operatively,17.59 (19.850) mg/kg of body weight
same,"amount of oral rescue medication, Mean (SD)","[3]; 0-48 hours post-operatively, listed as compound I",4.05 (4.466) Number of pills
same,"% Change (Compound I-Vehicle)/Vehicle, mg/kg of body weight",[3]; 0-72 hours post-operatively,−15%
same,"% Change (Compound I-Vehicle)/Vehicle, number of pills",[3]; 0-72 hours post-operatively,−14%
same,"amount of oral rescue medication, Mean (SD)",[3]; 0-72 hours post-operatively,18.70 (21.509) mg/kg of body weight
same,"amount of oral rescue medication, Mean (SD)","[3]; 0-72 hours post-operatively, listed as compound I",4.33 (4.896) Number of pills
